Results published in ChEMBL document CHEMBL1201862, “PubChem BioAssay data set” (2004).
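1) Cells in 96-well plates. 2) Compound, 48 h, 5 concentrations. 3) Linear interpolation between surrounding doses. 4) Unreached endpoint = highest concentration. At the GI50, growth is halved.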 Activity calls are given as the source filed them. Rule as the data show it: active = GI50 up to about 1.1 µM and inactive = higher.

Experiments:
Assay in all cases: NCI anticancer screen, dose series, 48 h
[1] = test system: DU-145
[2] = test system: SF-295
[3] = test system: SF-268
[4] = test system: BT-549
[5] = test system: SW-620
[6] = test system: SNB-75
[7] = test system: HOP-92
[8] = test system: PC-3
[9] = test system: SF-539
[10] = test system: CCRF-CEM
[11] = test system: UACC-257
[12] = test system: U-251
[13] = test system: UO-31
[14] = test system: SNB-19
[15] = test system: HCT-116
[16] = test system: OVCAR-4
[17] = test system: SR
[18] = test system: HCT-15
[19] = test system: T47D
[20] = test system: NCI/ADR-RES

Row | SMILES | GI50 [1] | GI50 [2] | GI50 [3] | GI50 [4] | GI50 [5] | GI50 [6] | GI50 [7] | GI50 [8] | GI50 [9] | GI50 [10] | GI50 [11] | GI50 [12] | GI50 [13] | GI50 [14] | GI50 [15] | GI50 [16] | GI50 [17] | GI50 [18] | GI50 [19] | GI50 [20]
1 | COc1c2c(c(OC)c3c1c(=O)c1ccccc1n3C)OCO2 | 36.5 µM (inactive) | 14.1 µM (inactive) | 18.5 µM (inactive) | 15 µM (inactive) | 4.13 µM (inactive) | 6.68 µM (inactive) | > 47.8 µM (inactive) | 19.7 µM (inactive) | 5.31 µM (inactive) | 4.35 µM (inactive) | > 100 µM (inactive) | 19.1 µM (inactive) | 39.4 µM (inactive) | 26.5 µM (inactive) | 6.15 µM (inactive) | 24.6 µM (inactive) | 3.69 µM (inactive) | 26.1 µM | 6.7 µM (inactive) | 44.9 µM (inactive)
2 | c1ccc(/C(=N/Nc2ccccn2)c2cccnn2)cc1 | 2.62 µM (inactive) | 3.11 µM (inactive) | 0.853 µM (active) | 13.9 µM (inactive) | 3.44 µM (inactive) | 2.78 µM (inactive) | 5.48 µM (inactive) | 5.86 µM (inactive) | 2.74 µM (inactive) | 0.767 µM (active) | 3.94 µM (inactive) | 4.21 µM (inactive) | 0.885 µM (active) | 10.3 µM (inactive) | 2.28 µM (inactive) | > 84.5 µM (inactive) | 0.522 µM (active) | 0.824 µM | 9.16 µM (inactive) | 2.17 µM (inactive)
3 | O=C(N/N=C\c1cccc2ccccc12)Nc1ccc([N+](=O)[O-])cc1 | 15.3 µM (inactive) | 13.7 µM (inactive) | 19.5 µM (inactive) | 20 µM (inactive) | 29.6 µM (inactive) | 38.9 µM (inactive) | 6.67 µM (inactive) | 6.95 µM (inactive) | 8.05 µM (inactive) | 24.3 µM (inactive) | 25.1 µM (inactive) | 17.1 µM (inactive) | 12.8 µM (inactive) | 21.4 µM (inactive) | 6.28 µM (inactive) | 8.04 µM (inactive) | > 27.6 µM (inactive) | 13.9 µM | 4.28 µM (inactive) | 13.9 µM (inactive)
4 | COc1cc2oc3c(c(=O)c2c(O)c1/C=C/C(C)C)CCC(C)(C)Oc1cc(O)ccc1-3 | 33.8 µM (inactive) | 13.3 µM (inactive) | 15.6 µM (inactive) | 17.1 µM (inactive) | 21.4 µM (inactive) | 16 µM (inactive) | 17.6 µM (inactive) | 15.2 µM (inactive) | 13.1 µM (inactive) | 17.3 µM (inactive) | 14.3 µM (inactive) | 20.5 µM (inactive) | 13.1 µM (inactive) | 16.1 µM (inactive) | 18.2 µM (inactive) | 14.3 µM (inactive) | 4.78 µM (inactive) | 10.2 µM | 33.9 µM (inactive) | 15.4 µM (inactive)
5 | CCOC(=O)c1c(N2CCOCC2)[nH]c(=O)c(C(c2ccc(N(C)C)cc2)c2c(O)c(C(=O)OCC)c(N3CCOCC3)[nH]c2=O)c1O | > 100 µM (inactive) | > 100 µM (inactive) | > 100 µM (inactive) | > 100 µM (inactive) | > 100 µM (inactive) | > 100 µM (inactive) | > 100 µM (inactive) | > 100 µM (inactive) | > 100 µM (inactive) | 54.2 µM (inactive) | > 100 µM (inactive) | > 100 µM (inactive) | > 100 µM (inactive) | > 100 µM (inactive) | > 100 µM (inactive) | > 100 µM (inactive) | > 100 µM (inactive) | > 100 µM | > 100 µM (inactive) | > 100 µM (inactive)
